Among the data in PubChem BioAssay (NCI) are TGI values, retold here.

Each structure is given as a SMILES string.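 How tested: cells in 96-well plates exposed to compound for 48 hours at five concentrations. Definition used: TGI = concentration required for complete inhibition of growth.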

Test in all cases: growth of human tumour cells (NCI), 48 h
Test [1] has as its system A549 NSCLC.
For test [2], the system named is ACHN renal.
Test [3] has as its system HCT-116 colon.
The test system of test [4] is HOP-92 NSCLC.
The test system of test [5] is KM20L2 colon.
The test system of test [6] is M14 melanoma.
Test [7] relates to SNB-19 CNS.
In test [8] the test system is SNB-78 CNS.
Test [9] relates to U251 CNS.
Test [10] has as its system UACC-62 melanoma.

In the case of `O=C(CCCNC(=O)OCc1ccccc1)OCc1ccc2c(c1)C(=O)c1ccccc1C2=O`, the TGI in test [1] is more than 100 µM; in [2] it was more than 100 µM; in [3] it was more than 100 µM; in test [4] it was more than 91.3 µM; in test [5], more than 100 µM; in test [6], more than 100 µM. Further, the TGI was more than 100 µM in test [7], more than 94.3 µM in test [8], more than 100 µM in [9] and more than 100 µM in test [10].
With `O=C(N/C(=C\c1ccc(Br)cc1)c1nc2ccccc2s1)c1ccccc1`, the TGI in [1], in test [2], in test [3], in [4], in test [5] and in test [6] was more than 100 µM throughout. The TGI in test [7], in test [8], in [9] and in test [10] was more than 100 µM throughout.
In the case of `CC1=Nc2c([nH]c(=S)[nH]c2=O)NC(c2ccc(Cl)c(Cl)c2)C1` (stereo not given), the TGI is 47.5 µM in test [1]; more than 100 µM in test [2]; 30.1 µM in [3]; more than 100 µM in [4]; more than 62.9 µM in [5]; 31.3 µM in [6]. The TGI in test [7] is more than 59.8 µM; in test [8] it was more than 100 µM; in test [9] it was 31.1 µM; in [10], more than 63.7 µM.
As to `CN(C)c1nc(N(C)C)n2nc(-c3ccccc3[N+](=O)[O-])nc2n1`, the TGI in test [1] is more than 100 µM; in test [2], more than 100 µM; in test [3] it was 89.2 µM; in test [4], more than 100 µM; in [5], more than 100 µM; in test [6] it was more than 100 µM. The TGI in [7], in test [8], in [9] and in test [10] was more than 100 µM each time.
Consider `OCC(O)COc1c(Cl)ccc(Cl)c1Cl` (stereo not given), for which the TGI in test [1], in [2], in test [3], in test [4], in [5] and in [6] was more than 100 µM throughout. Besides, the TGI in test [7], in [8], in test [9] and in [10] was more than 100 µM each time.
Consider `C=C1CC2(OC1=O)c1ccccc1C=Cc1ccccc12`, for which the TGI in test [1] stood at 23.3 µM; in [2], 9.83 µM; in [3] it was 5.4 µM; in test [4] it was 3.44 µM; in test [5], 20.5 µM; in test [6] it was 10 µM. Moreover, the TGI was determined as 29.9 µM in test [7], 9.3 µM in test [8], 15.5 µM in test [9] and 9.96 µM in test [10].
Regarding `CCOC(=O)CC1=NC(=Nc2cc(Cl)ccc2Cl)SC1`, the TGI in test [1], in test [2], in test [3], in [4], in test [5] and in test [6] was more than 100 µM each time. Also, the TGI in test [7], in test [8], in test [9] and in [10] was more than 100 µM throughout.
For the compound `COC(=O)C1=C(c2cc(OC)c(OC)c(OC)c2)OC(c2cc(OC)c(OC)c(OC)c2)C1COC(C)=O` (stereo not given), the TGI in [1], in test [2], in [3], in test [4], in test [5] and in test [6] was more than 100 µM each time. The TGI in test [7], in [8], in [9] and in test [10] was more than 100 µM each time.
For the compound `O=C(CCc1ccccc1)On1nnc2ccccc2c1=O`, the TGI in test [1], in test [2], in test [3], in [4], in [5] and in test [6] was more than 100 µM in each case. Moreover, the TGI in [7], in [8], in test [9] and in [10] was more than 100 µM each time.
On to `O=C1OC(c2ccccc2)=N/C1=C\c1c(O)cc(O)cc1O`, for which the TGI in test [1], in test [2], in [3], in test [4], in [5] and in test [6] was more than 100 µM each time. Further, the TGI in test [7], in test [8], in test [9] and in test [10] was more than 100 µM each time.
Regarding `N#CCC(=O)N/N=C1/C(=O)NC(=O)C(=O)C1c1nc2ccccc2s1` (stereo not given), the TGI in test [1], in test [2], in test [3], in test [4], in test [5] and in test [6] was more than 100 µM each time. Besides, the TGI in test [7], in test [8], in [9] and in test [10] was more than 100 µM in each case.
